From patent publication US9957234B2, “Polymorphs of Ivacaftor, process for its preparation and pharmaceutical composition thereof” (Laurus Labs Limited, priority 2014, dated 2018)
Read-outs that look alike come from different tables or passages of the source. Each block holds one molecule with its values, some of them ahead of it.

Experiments:
[1] = Chemical and polymorphic stability study of Ivacaftor Form-L2 on storage (HPLC, XRD); assay type: physicochemical
Method: Ivacaftor Form L2 is packed in a transparent Low density polyethylene (LDPE) bag with a strip seal, which is again kept in a second transparent low density polyethylene bag with strip seal. The LDPE bag is kept in to a triple laminated sunlight barrier with heat seal followed by in a high density polyethylene container and well closed. The ivacaftor was analyzed using High Performance Liquid Chromatography (“HPLC”) with the conditions are tabulated below: [table]

[2] = Saturation solubility studies in various mediums; assay type: physicochemical
Method: Saturation solubility studies were conducted in various mediums for ivacaftor polymorph Form-L2 and Amorphous form and the data is given in Table III.

[3] = stored at 25 ± 2° C./60 ± 5% RH, 1 month
[4] = stored at 25 ± 2° C./60 ± 5% RH, 3 month
[5] = stored at 25 ± 2° C./60 ± 5% RH, Initial
[6] = stored at 40 ± 2° C./75 ± 5% RH, 1 month
[7] = stored at 40 ± 2° C./75 ± 5% RH, 3 month
[8] = stored at 40 ± 2° C./75 ± 5% RH, Initial

Any major unknown impurity [1, 3]: 0.02 % by HPLC
Description [1, 3]: off-white
Solid form by XRD [1, 3]: Complies
Total impurity [1, 3]: 0.02 % by HPLC
Any major unknown impurity [1, 4]: 0.02 % by HPLC
Description [1, 4]: off-white
Solid form by XRD [1, 4]: Complies
Total impurity [1, 4]: 0.02 % by HPLC
Any major unknown impurity [1, 5]: 0.02 % by HPLC
Description [1, 5]: off-white
Solid form by XRD [1, 5]: Complies
Total impurity [1, 5]: 0.03 % by HPLC
Quinolone acid (Imp-3) ([1]; stored at 25 ± 2° C./60 ± 5% RH, Initial, LOD 0.006%): 0.01 % by HPLC
Any major unknown impurity [1, 6]: 0.01 % by HPLC
Description [1, 6]: off-white
Solid form by XRD [1, 6]: Complies
Total impurity [1, 6]: 0.03 % by HPLC
Any major unknown impurity [1, 7]: 0.01 % by HPLC
Description [1, 7]: off-white
Solid form by XRD [1, 7]: Complies
Total impurity [1, 7]: 0.03 % by HPLC
Any major unknown impurity [1, 8]: 0.02 % by HPLC
Description [1, 8]: off-white
Impurity at RRT 0.59 [1, 8]: 0.01 % by HPLC
Solid form by XRD [1, 8]: Complies
Total impurity [1, 8]: 0.03 % by HPLC
solubility ([2]; 0.001N HCl + 0.7% SLS, pH 3.12, aqueous with cosolvent or surfactant or cyclodextrin, thermodynamic from solid, 0.001N HCl + 0.7% SLS, pH 3.12, read-out: Solubility): 240 µg/mL
solubility ([2]; 0.01N HCl + 0.7% SLS, pH 2.12, aqueous with cosolvent or surfactant or cyclodextrin, thermodynamic from solid, 0.01N HCl + 0.7% SLS, pH 2.12, read-out: Solubility): 260 µg/mL
solubility ([2]; 50 mM Phosphate buffer + 0.7% SLS, pH 4.6, aqueous with cosolvent or surfactant or cyclodextrin, thermodynamic from solid, 50 mM Phosphate buffer + 0.7% SLS, pH 4.60, read-out: Solubility): 380 µg/mL
solubility ([2]; 0.1N HCl + 0.7% SLS, pH 1.1, aqueous with cosolvent or surfactant or cyclodextrin, thermodynamic from solid, 0.1N HCl + 0.7% SLS, pH 1.10, read-out: Solubility): 150 µg/mL
solubility ([2]; pH 4.5 AB + 0.7% SLS, pH 4.52, aqueous with cosolvent or surfactant or cyclodextrin, thermodynamic from solid, pH 4.5 AB + 0.7% SLS, pH 4.52, read-out: Solubility): 310 µg/mL
solubility ([2]; pH 5.5 PB + 0.7% SLS, pH 5.53, aqueous with cosolvent or surfactant or cyclodextrin, thermodynamic from solid, pH 5.5 PB + 0.7% SLS, pH 5.53, read-out: Solubility): 260 µg/mL
solubility ([2]; pH 6.8 PB + 0.7% SLS, pH 6.8, aqueous with cosolvent or surfactant or cyclodextrin, thermodynamic from solid, pH 6.8 PB + 0.7% SLS, pH 6.80, read-out: Solubility): 260 µg/mL
SMILES: CC(C)(C)c1cc(C(C)(C)C)c(NC(=O)c2c[nH]c3ccccc3c2=O)cc1O [Ivacaftor Form-L2, N-(2,4-di-tert-butyl-5-hydroxyphenyl)-1,4-dihydro-4-oxoquinoline-3-carboxamide]
Polymorphic and chemical identity on storage ([1]; different storage condition (25° C./60% RH and 40° C./75% RH)): retained the same polymorphic and chemical identity at least up to three months
Solubility compared to amorphous form ([2]; various mediums, Table III): more solubility when compared to amorphous form

solubility ([2]; 0.001N HCl + 0.7% SLS, pH 3.12): 230 µg/mL
solubility ([2]; 0.01N HCl + 0.7% SLS, pH 2.12): 180 µg/mL
solubility ([2]; 50 mM Phosphate buffer + 0.7% SLS, pH 4.60): 190 µg/mL
solubility ([2]; 0.1N HCl + 0.7% SLS, pH 1.10): 120 µg/mL
solubility ([2]; pH 4.5 AB + 0.7% SLS, pH 4.52): 170 µg/mL
solubility ([2]; pH 5.5 PB + 0.7% SLS, pH 5.53): 180 µg/mL
solubility ([2]; pH 6.8 PB + 0.7% SLS, pH 6.80): 180 µg/mL
SMILES: CC(C)(C)c1cc(C(C)(C)C)c(NC(=O)c2c[nH]c3ccccc3c2=O)cc1O [Amorphous form, N-(2,4-di-tert-butyl-5-hydroxyphenyl)-1,4-dihydro-4-oxoquinoline-3-carboxamide, reference compound]
